Laboratory results from US10391070B2, “Compositions and methods for treating neurological diseases or injury” (MUSC FOUNDATION FOR RESEARCH DEVELOPMENT, priority 2012, dated 2019).

Legend:
[1] = system: minimal clonic seizures (6 Hz); assay: Minimal clonic seizure (6 Hz) test; assay type: in vivo, mouse; settings: mice; for animals protected/animals tested, 0.25 h / animals protected/animals tested, 0.5 h / animals protected/animals tested, 1.0 h / animals protected/animals tested, 2.0 h / animals protected/animals tested, 4.0 h: 6 Hz
Protocol: Mouse studies were performed by NIH Anticonvulsant Screening Program at the National Institute of Neurological Disorders and Stroke (Stables and Kupferberg, 1997) according to the established NIH experimental procedures outlined below. Compounds were delivered into mice by i.p. injection at a dose of 100 mg/kg in sterile 5% DMSO, 95% Neobee (Josey et al., 2013). One of four methods for seizure induction was subsequently administered to mice at 0.25, 0.5, 1, 2 and 4 h after treatment with compound. (1) Subcutaneous PTZ seizure threshold test. PTZ was administered at a concentration of 85 mg/kg, into the loose fold of skin in the midline of the neck. […] (2) Maximal electroshock test. 60 Hz of 50 mA alternating current was delivered for 0.2 s by corneal electrodes. Mice were considered protected from seizures when the hindlimb tonic extensor was absent (White et al., 1995). (3) Minimal clonic seizure (6 Hz) test. 6 Hz of 32 mA or 44 mA alternating current was delivered for 3 s by corneal electrodes to elicit a psychomotor seizure. Mice were considered protected from seizures when the automatistic behaviors were absent (Barton et al., 2001). (4) Corneal kindled mouse model. Mice were kindled electrically with a 3 s stimulation, 8 mA, 60 Hz, and corneal electrodes to a criterion of 10 consecutive Stage 5 seizures (facial clonus and head nodding progressing to forelimb clonus, and finally rearing and falling accompanied by a generalized clonic seizure as described by Racine, 1972). Animals generally reach Stage 5 after twice daily stimulation for 8 days. With continued stimulation once a day, animals usually progressed to a reproducible Stage 5 after 10-14 additional days. At least 72 hours after the mice were kindled, the test substance was administered i.p. and each animal was given the electrical stimulus indicated above. […] Treated animals not displaying a Stage 4 or 5 seizure were considered protected.
6 Hz of 32 mA or 44 mA alternating current was delivered for 3 s by corneal electrodes to elicit a psychomotor seizure. Mice were considered protected from seizures when the automatistic behaviors were absent (Barton et al., 2001). Pre-administration of test compounds (100 mg/kg) to mice via i.p. injection protects against minimal clonic seizures (6 Hz). The data for each treatment is represented as the number of animals protected/number of animals tested.
The minimal clonic seizure (6 Hz) test is generally used to assess a agent's efficacy against electrically-induced seizures but uses a lower frequency (6 Hz) and longer duration of stimulation (3s) shock. Test compounds are pre-administered to mice via i.p. injection. Individual mice are challenged with sufficient current delivered through corneal electrodes to elicit a psychomotor seizure in 97% of animals (32 mA for 3s). Untreated mice will display seizures characterized by a minimal clonic phase followed by stereotyped, automatistic behaviors described originally as being similar to the aura of human patients with partial seizures. Animals not displaying this behavior are considered protected. Animals may also be evaluated using stimulation of 22 or 44 mA.

[2] = Antioxidant activity assay (DPPH free radical scavenging); settings: 20 μM, 100 μM DPPH in methanol
Protocol: Antioxidant activity of various reagents was assayed as previously described by monitoring the disappearance of the optical absorbance of the stable-free radical DPPH on reaction with test compounds (Blois, 1958). The rate of the reaction represents the antioxidant potency of test agents. The known free radical scavenger Trolox and ascorbic acid were used as positive controls. Briefly, 10 μL of test reagents at final concentrations of 20 μM were added to 200 μL of 100 μM DPPH in methanol. Optical absorbance of DPPH at 517 nm was immediately monitored for 10 min.

HT-22 neuronal cells = assay: Respirometry (OCR, ECAR; Seahorse XF-96); assay type: cell-based, mouse; design: ECAR (glycolysis), difference from control: unit not given here; settings: HT-22 cells, mean±SEM; for basal cellular respiration, difference in OCR from control: 1 h treatment, OCR as percentage of pre-treatment value; for basal mitochondrial respiration, difference from control: basal minus non-mitochondrial (rotenone); for ATP-linked respiration, difference from control: basal minus oligomycin
Protocol: Oxygen consumption rates (OCR) and extracellular acidification rates (ECAR) of HT-22 neuronal cells were performed on the XF-96 Extracellular Flux Analyzer (Seahorse Bioscience) using standard methods (Beeson et al., 2010). In brief, cells were cultured in 96 well Seahorse plates in DMEM high glucose media (Invitrogen) supplemented with 10% FBS, 10 mM HEPES, and 1% antibiotic-antimycotic (Invitrogen). The media was replaced with DMEM media supplemented with 25 mM glucose, 10 mM sodium pyruvate, 31 mM NaCl, and 2 mM glutamine at pH 7.4. Each of the four drug ports on the Seahorse sensor cartridge were filled with test compound (media only, 5 μM NQN-1, 10 μM VK3 or 12.5 μM MB), 10 μM oligomycin, 1 μM FCCP, and 5 μM rotenone, which were injected into each well at 20, 80, 110, and 135 min, respectively. The pmol/min OCR rate for each well (9-52 wells/group) was measured. Wells were excluded from the analysis if their OCR values surpassed the Tukey Outlier Rule. In order to standardize the OCR rates across wells, the average OCR value at 17 min (last time point prior to injection of the test compounds) for each experimental group was calculated, and set to 100. All OCR values are given as a percentage of this pre-treatment value. […]

Compound	animals protected/animals tested, 0.25 h ([1]; 100 mg/kg i.p., 32 mA)	animals protected/animals tested, 0.5 h ([1]; 100 mg/kg i.p., 32 mA)	animals protected/animals tested, 1.0 h ([1]; 100 mg/kg i.p., 32 mA)	animals protected/animals tested, 2.0 h ([1]; 100 mg/kg i.p., 32 mA)	animals protected/animals tested, 4.0 h ([1]; 100 mg/kg i.p., 32 mA)	protection against 6 Hz seizures ([1]; 100 mg/kg i.p., 32 mA, 0.25 h)	anticonvulsant activity in minimal clonic (6 Hz) test ([1]; 32 mA)	protection in 6 Hz model at 44 mA ([1]; 44 mA)	free radical scavenging capacity (DPPH absorbance) [2]	basal cellular respiration, difference in OCR from control (HT-22 neuronal cells)	basal mitochondrial respiration, difference from control (HT-22 neuronal cells)	ATP-linked respiration, difference from control (HT-22 neuronal cells)	ECAR (glycolysis), difference from control (HT-22 neuronal cells)
C#CCNC1=CC(=O)c2ccccc2C1=O [Compound 2h, 2-(prop-2-yn-1-ylamino)naphthalene-1,4-dione]	4/4	2/4	1/4	1/4	0/4	100%	good anticonvulsant activity	did not result in any protection					
O=C1C=C(NCc2ccccc2)C(=O)c2ccccc21 [Compound 2j, 2-(benzylamino)naphthalene-1,4-dione]	0/4	0/4	1/4	1/4	1/4		good anticonvulsant activity		did not show direct antioxidant capacity	−4.14±2.9	9.09±3.13	6.58±3.28	5.03±1.11
O=C1C=C(NCc2cccc(Cl)c2)C(=O)c2ccccc21 [Compound 2q, 2-((3-chlorobenzyl)amino)naphthalene-1,4-dione]	1/4	0/4	1/4	0/4	0/4		good anticonvulsant activity		did not show direct antioxidant capacity				
CC1=CC(=O)c2ccccc2C1=O [VK3, menadione, reference compound]										21.57±0.97	elevated but failed to reach statistical significance	12.2±3.12	1.89±0.93
menaquinones [VK2, reference compound]									did not show direct antioxidant capacity				
